Source: ChEMBL document CHEMBL3526130, “An evaluation of using rat-derived single-dose neuropharmacokinetic parameters to project accurately large animal unbound brain drug concentrations” (Drug Metab Dispos, 2012)

How the values were obtained:
Type in all cases: ADME, organism-based
[1] = AUC(0 to infinity) in Sprague-Dawley rat cerebrospinal fluid at 10 mg/kg, sc by LC-MS/MS analysis; design: time infinity, dose 10 mg/kg, route subcutaneous
[2] = AUC(0 to infinity) in Sprague-Dawley rat brain at 10 mg/kg, sc by LC-MS/MS analysis; design: time infinity, dose 10 mg/kg, route subcutaneous
[3] = AUC(0 to infinity) in Sprague-Dawley rat plasma at 10 mg/kg, sc by LC-MS/MS analysis; design: dose 10 mg/kg, route subcutaneous, time infinity
[4] = AUC(0 to 7 hrs) in Sprague-Dawley rat cerebrospinal fluid at 10 mg/kg, sc by LC-MS/MS analysis; design: time < 7 hr, dose 10 mg/kg, route subcutaneous
[5] = Ratio of unbound drug level in brain to plasma in Sprague-Dawley rat at 10 mg/kg, sc by LC-MS/MS analysis; design: dose 10 mg/kg, route subcutaneous
[6] = AUC(0 to 7 hrs) in Sprague-Dawley rat plasma at 10 mg/kg, sc by LC-MS/MS analysis; design: time < 7 hr, dose 10 mg/kg, route subcutaneous
[7] = Ratio of drug level in brain to plasma in Sprague-Dawley rat at 10 mg/kg, sc by LC-MS/MS analysis; design: dose 10 mg/kg, route subcutaneous; conditions: read-out: BPR
[8] = Ratio of unbound brain concentration to drug level in cerebrospinal fluid in Sprague-Dawley rat at 10 mg/kg, sc by LC-MS/MS analysis; design: dose 10 mg/kg, route subcutaneous; conditions: in vivo
[9] = AUC(0 to 7 hrs) in Sprague-Dawley rat brain at 10 mg/kg, sc by LC-MS/MS analysis; design: time < 7 hr, dose 10 mg/kg, route subcutaneous
[10] = AUC(0 to 7 hrs) in Sprague-Dawley rat brain at 35 mg/kg, sc by LC-MS/MS analysis; design: time < 7 hr, dose 35 mg/kg, route subcutaneous
[11] = AUC(0 to infinity) in Sprague-Dawley rat plasma at 35 mg/kg, sc by LC-MS/MS analysis; design: time infinity, dose 35 mg/kg, route subcutaneous
[12] = AUC(0 to 7 hrs) in Sprague-Dawley rat cerebrospinal fluid at 35 mg/kg, sc by LC-MS/MS analysis; design: time < 7 hr, dose 35 mg/kg, route subcutaneous
[13] = AUC(0 to infinity) in Sprague-Dawley rat cerebrospinal fluid at 35 mg/kg, sc by LC-MS/MS analysis; design: dose 35 mg/kg, route subcutaneous, time infinity
Nucleic Acid [14] = experiment: Ratio of drug level in brain to plasma in Sprague-Dawley rat at 35 mg/kg, sc by LC-MS/MS analysis; design: dose 35 mg/kg, route subcutaneous
[15] = AUC(0 to infinity) in Sprague-Dawley rat brain at 35 mg/kg, sc by LC-MS/MS analysis; design: dose 35 mg/kg, route subcutaneous, time infinity
Nucleic Acid [16] = experiment: Ratio of drug level in cerebrospinal fluid to unbound plasma concentration in Sprague-Dawley rat at 35 mg/kg, sc by LC-MS/MS analysis; design: dose 35 mg/kg, route subcutaneous; conditions: in vivo
[17] = AUC(0 to 7 hrs) in Sprague-Dawley rat plasma at 35 mg/kg, sc by LC-MS/MS analysis; design: time < 7 hr, dose 35 mg/kg, route subcutaneous
[18] = Ratio of unbound brain concentration to drug level in cerebrospinal fluid in Sprague-Dawley rat at 35 mg/kg, sc by LC-MS/MS analysis; design: dose 35 mg/kg, route subcutaneous; conditions: in vivo
[19] = Ratio of unbound drug level in brain to plasma in Sprague-Dawley rat at 35 mg/kg, sc by LC-MS/MS analysis; design: dose 35 mg/kg, route subcutaneous

SMILES | AUC(0-inf) [1] [ng·h/mL] | AUC(0-inf) [2] [ng·h/mL] | AUC(0-inf) [3] [ng·h/mL] | AUC(0-t) at 7 h [4] [ng·h/mL] | Kp uu [5] | AUC(0-t) at 7 h [6] [ng·h/mL] | Kp [7] | Ratio [8] | AUC(0-t) at 7 h [9] [ng·h/mL] | AUC(0-t) at 7 h [10] [ng·h/mL] | AUC(0-inf) [11] [ng·h/mL] | AUC(0-t) at 7 h [12] [ng·h/mL] | AUC(0-inf) [13] [ng·h/mL] | BPR (Nucleic Acid [14]) | AUC(0-inf) [15] [ng·h/mL] | Ratio (Nucleic Acid [16]) | AUC(0-t) at 7 h [17] [ng·h/mL] | Ratio [18] | Kp uu [19]
CN(C)CCCC1(c2ccc(F)cc2)OCc2cc(C#N)ccc21 (racemic) [CITALOPRAM] | 421 | 12900 | 958 | 401 | 1.08 | 930 | 13.4 | 0.89 | 12500 | – | – | – | – | – | – | – | – | – | –
C=C[C@H]1C[N@@]2CC[C@H]1C[C@@H]2[C@@H](O)c1ccnc2ccc(OC)cc12 [QUINIDINE] | – | – | – | – | – | – | – | – | – | 1850 | 5310 | 302 | 304 | 0.38 | 1880 | 0.23 | 4920 | 0.22 | 0.05
